Results published in patent US7935686B2, “Acyloxyalkyl carbamate prodrugs, methods of synthesis, and use” (XenoPort, Inc., priority 2004, dated 2011).

What was measured:
[1] = animal models (Merino et al.); cited from earlier work
pancreatin = assay: Pancreatin stability; type: in vitro ADME, porcine; conditions: 1% (w/v) pancreatin, 5 μM prodrug, pH 7.5, 37° C.
Method: (§1) The stabilities of prodrugs were evaluated in one or more in vitro systems using a variety of preparations following methods known in the art. Tissues and/or preparations were obtained from commercial sources (e.g., Pel-Freez Biologicals, Rogers, Ark., or GenTest Corporation, Woburn, Mass.). Experimental conditions used for the in vitro studies are described in Table 1. Each preparation was incubated with test compound at 37° C. for one hour. Aliquots (50 μL) were removed at 0, 30, and 60 min and quenched with 0.1% trifluoroacetic acid in acetonitrile. Samples were then centrifuged and analyzed by LC/MS/MS. Stability of prodrugs towards specific enzymes (e.g., peptidases, etc.) were also assessed in vitro by incubation with the purified enzyme:
Pancreatin Stability: Stability studies were conducted by incubating prodrug (5 μM) with 1% (w/v) pancreatin (Sigma, P-1625, from porcine pancreas) in 0.025 M Tris buffer containing 0.5 M NaCl (pH 7.5) at 37° C. for 60 min. The reaction was stopped by addition of 2 volumes of methanol. After centrifugation at 14,000 rpm for 10 min, the supernatant was removed and analyzed by LC/MS/MS.

[2] = Prodrug in vitro metabolism, human plasma; type: in vitro ADME; conditions: 2.0 μM substrate, no cofactors, 37° C.
Method: as §1, with “enzyme: […]” for “enzyme:”

[3] = Prodrug in vitro metabolism, rat liver S9; type: in vitro ADME; conditions: Rat Liver S9 (0.5 mg/mL), 2.0 μM substrate, NADPH, 37° C.
Method: as §1, with “enzyme: […]” for “enzyme:”

[4] = Prodrug in vitro metabolism, human liver S9; type: in vitro ADME; conditions: Human Liver S9 (0.5 mg/mL), 2.0 μM substrate, NADPH, 37° C.
Method: as §1, with “enzyme: […]” for “enzyme:”

[5] = Caco-2 homogenate S9 stability; type: in vitro ADME; conditions: Caco-2 S9 (0.5 mg protein per mL), 5 μM prodrug, 37° C.
Method: Caco-2 Homogenate S9 Stability: Caco-2 cells were grown for 21 days prior to harvesting. Culture medium was removed and cell monolayers were rinsed and scraped off into ice-cold 10 mM sodium phosphate/0.15 M potassium chloride, pH 7.4. Cells were lysed by sonication at 4° C. using a probe sonicator. Lysed cells were then transferred into 1.5 mL centrifuge vials and centrifuged at 9000 g for 20 min at 4° C. The resulting supernatant (Caco-2 cell homogenate S9 fraction) was aliquoted into 0.5 mL vials and stored at −80° C. until used.
For stability studies, prodrug (5 μM) was incubated in Caco-2 homogenate S9 fraction (0.5 mg protein per mL) for 60 min at 37° C. Concentrations of intact prodrug and released parent drug were determined at zero time and 60 minutes using LC/MS/MS.

[6] = Prodrug in vitro metabolism, rat plasma; type: in vitro ADME; conditions: 2.0 μM substrate, no cofactors, 37° C.
Method: as §1, with “enzyme: […]” for “enzyme:”

Compound | absorption following administration into the colon [1] | Percent of Prodrug Remaining after 60 min. (pancreatin) [%] | Percent of Prodrug Remaining after 60 min. [2] [%] | Percent of Prodrug Remaining after 60 min. [3] [%] | Percent of Prodrug Remaining after 60 min. [4] [%] | Percent of Prodrug Remaining after 60 min. [5] [%] | Percent of Prodrug Remaining after 60 min. [6] [%]
NCC(CC(=O)O)c1ccc(Cl)cc1 (racemic) [Baclofen, (±)-4-Amino-3-(4-chlorophenyl)butanoic acid] | poorly absorbed |  |  |  |  |  | 
CC(C)C(=O)OC(OC(=O)NCCCP(C)(=O)O)C(C)C (stereo not shown) [Compound 194, 3-{[1-Isobutanoyloxyisobutoxy]carbonylamino}propyl Methylphosphinic Acid] |  | 91 | 77 | 63 | 66 | 71 | 38
CC(C)C(=O)OCOC(=O)NCCCP(C)(=O)O [Compound 115, 3-{[Isobutanoyloxymethoxy]carbonylamino}propyl Methylphosphinic Acid] |  | 20 | 30 | 67 | 57 | 20 | 7
CC(OC(=O)NCCCP(C)(=O)O)OC(=O)C1CCCCC1 (stereo not shown) [Compound 114, 3-{[1-Cyclohexanoyloxyethoxy]carbonylamino}propyl Methylphosphinic Acid] |  | 24 | 97 | 51 | 43 | 82 | 98
CC(OC(=O)NCCCP(C)(=O)O)OC(=O)C(C)C (stereo not shown) [Compound 111, 3-{[1-Isobutanoyloxyethoxy]carbonylamino}propyl Methylphosphinic Acid] |  | 79 | 84 | 82 | 81 | 82 | 40
CP(=O)(O)CCCNC(=O)OCOC(=O)c1ccccc1 [Compound 195, 3-{[Benzoyloxymethoxy]carbonylamino}propyl Methylphosphinic Acid] |  | 62 | 78 | 85 | 64 | 91 | 100
